From publication PMC10075506, “Synthesis and biological evaluation of flavonoid-based IP6K2 inhibitors” (Journal of Enzyme Inhibition and Medicinal Chemistry, 2023)

Biological target: T1, recombinant human IP6K2 (Homo sapiens, UniProt Q9UHH9)
T1 construct: made in house; host or cells: Sf9 insect cells (baculovirus, pFASTBAC1)
T1 sequence (Q9UHH9 1-426): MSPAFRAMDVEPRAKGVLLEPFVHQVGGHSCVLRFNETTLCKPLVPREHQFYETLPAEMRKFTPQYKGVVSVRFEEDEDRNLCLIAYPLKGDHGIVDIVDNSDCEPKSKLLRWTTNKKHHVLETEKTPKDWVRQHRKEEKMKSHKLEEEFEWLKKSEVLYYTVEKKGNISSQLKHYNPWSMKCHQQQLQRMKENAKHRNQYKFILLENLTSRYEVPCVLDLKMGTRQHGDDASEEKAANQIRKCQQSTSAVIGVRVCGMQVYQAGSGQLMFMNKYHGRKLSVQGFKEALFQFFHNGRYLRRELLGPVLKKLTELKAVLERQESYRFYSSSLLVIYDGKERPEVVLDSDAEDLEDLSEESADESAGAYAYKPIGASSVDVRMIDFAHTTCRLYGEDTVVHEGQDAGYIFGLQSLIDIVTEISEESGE
Assay: ADP-Glo kinase assay, IP6K2
Type: biochemical
Conditions: IC50 compared with quercetin
Description: Inhibition activity of the synthesised compounds against IP6K2 was assessed using ADP-Glo™ Kinase Assay (Promega). Kinase reaction mixtures were first shaking-incubated with individual drugs (diluted in DMSO) for pre-incubation at RT for 15 min, and then ATP was added (final 10 µM) to initiate the reaction. 20 ng of recombinant human IP6K2 protein was used per 15 µL of IP6K2 reaction mixture (50 mM Tris-HCl, pH 6.8, 10 mM MgCl2, 2.5 mM DTT, 0.02% Triton X-100, 10 µM IP6). […] Each detection set was prepared on 96-well (25 µL kinase reaction) as duplicates. Resulting enzyme activity was calculated as following; Activity (%) = ([ADPexperimental]/[ADPDMSO])×100. For IC50 estimation of compounds, kinase assay was prepared on 384-well plates (20 ng of recombinant human IP6K2 protein was used per 5 µL kinase reaction mixture) as duplicates. The final concentrations for IP6K2, IP6, and ATP were 80 nM, 10 μM, and 10 μM, respectively. […] IP6K1 and IP6K3 assays were performed by Liao et al.’s conditions.[25] The final concentrations for IP6K1, IP6, and ATP were 60 nM, 100 μM, and 1 mM, respectively. […] All statistical analyses including IC50 estimation was performed using Prism 7 or Prism 9 (Graphpad Software).
Full-length human IP6K1, IP6K2, or IP6K3 cDNA was subcloned into pFASTBAC1 plasmid (Gibco) with an N-terminal FLAG epitope sequence, and baculovirus was generated according to the manufacturer’s instructions. Sf9 insect cells were infected with baculovirus and incubated for 72 h. The cells were resuspended in lysis buffer [20 mM Tris–HCl (pH 7.9), 500 mM NaCl, 4 mM MgCl2, 0.4 mM EDTA, 2 mM DTT, 20% glycerol, 1 mM PMSF, and protease inhibitor cocktail (Roche)] and then disrupted with a Dounce homogeniser (pestle A, 3 series of 10 strokes with 10 min interval).

Compound | fold more potent IP6K2 inhibition than quercetin [fold]
Cn1cc(-c2oc3cc(O)c(O)cc3c(=O)c2O)cn1 [Compound 23b, 3,6,7-Trihydroxy-2–(1-methyl-1H-pyrazol-4-yl)-4H-chromen-4-one] | 2

Same assay, conditions: IC50 experiment up to 100 µM

Compound | inhibitory activity against IP6K2 (in words)
Cc1ccc(-c2oc3cc(O)c(O)cc3c(=O)c2O)cc1C [Compound 20e, 2–(3,4-Dimethylphenyl)-3,6,7-trihydroxy-4H-chromen-4-one] | completely lost their inhibitory activity against IP6K2
O=c1c(O)c(-c2ccc(F)c(F)c2)oc2cc(O)c(O)cc12 [Compound 20h, 2–(3,4-Difluorophenyl)-3,6,7-trihydroxy-4H-chromen-4-one] | completely lost their inhibitory activity against IP6K2

Same assay, conditions: Table 1; IP6K2 80 nM, IP6 10 μM, ATP 10 μM; read-out: IP6K2 IC50

Compound | IC50 [µM]
O=C(O)c1ccc(-c2cc(=O)c3cc(O)c(O)cc3o2)cc1 [Compound 16a, 4–(6,7-Dihydroxy-4-oxo-4H-chromen-2-yl)benzoic acid] | 9.07
O=C(O)c1cccc(-c2cc(=O)c3cc(O)c(O)cc3o2)c1 [Compound 16b, 3–(6,7-Dihydroxy-4-oxo-4H-chromen-2-yl)benzoic acid] | 1.67
O=C(O)c1ccc(-c2cc(=O)c3c(O)cc(O)cc3o2)cc1 [Compound 16c, 4–(5,7-Dihydroxy-4-oxo-4H-chromen-2-yl)benzoic acid] | 41.9
O=C(O)c1cccc(-c2cc(=O)c3c(O)cc(O)cc3o2)c1 [Compound 16d, 3–(5,7-Dihydroxy-4-oxo-4H-chromen-2-yl)benzoic acid] | 2.89

Same assay, conditions: Table 2; duplicates, 0.017 to 100 µM, mean ± SD; IP6K2 80 nM, IP6 10 μM, ATP 10 μM; read-out: IP6K2 IC50

Compound | IC50 [µM]
O=c1c(O)c(-c2ccc(O)c(O)c2)oc2cc(O)c(O)cc12 [Compound 20a, 2–(3,4-Dihydroxyphenyl)-3,6,7-trihydroxy-4H-chromen-4-one] | 1.77 ± 0.15
O=c1c(O)c(-c2ccccc2)oc2cc(O)c(O)cc12 [Compound 20b, 3,6,7-Trihydroxy-2-phenyl-4H-chromen-4-one] | 14.5 ± 0.9
Cc1ccc(-c2oc3cc(O)c(O)cc3c(=O)c2O)cc1 [Compound 20c, 3,6,7-Trihydroxy-2-(p-tolyl)-4H-chromen-4-one] | > 100
Cc1cccc(-c2oc3cc(O)c(O)cc3c(=O)c2O)c1 [Compound 20d, 3,6,7-Trihydroxy-2-(m-tolyl)-4H-chromen-4-one] | 38.8 ± 3.8
Cc1ccc(-c2oc3cc(O)c(O)cc3c(=O)c2O)cc1C [Compound 20e, 2–(3,4-Dimethylphenyl)-3,6,7-trihydroxy-4H-chromen-4-one] | > 100
O=c1c(O)c(-c2ccc(F)cc2)oc2cc(O)c(O)cc12 [Compound 20f, 2–(4-Fluorophenyl)-3,6,7-trihydroxy-4H-chromen-4-one] | 61.9 ± 3.8
O=c1c(O)c(-c2cccc(F)c2)oc2cc(O)c(O)cc12 [Compound 20g, 2–(3-Fluorophenyl)-3,6,7-trihydroxy-4H-chromen-4-one] | 38.7 ± 2.9
O=c1c(O)c(-c2ccc(F)c(F)c2)oc2cc(O)c(O)cc12 [Compound 20h, 2–(3,4-Difluorophenyl)-3,6,7-trihydroxy-4H-chromen-4-one] | > 100
O=c1c(O)c(-c2ccc(C(F)(F)F)cc2)oc2cc(O)c(O)cc12 [Compound 20i, 3,6,7-Trihydroxy-2–(4-(trifluoromethyl)phenyl)-4H-chromen-4-one] | > 100
O=c1c(O)c(-c2cccc(C(F)(F)F)c2)oc2cc(O)c(O)cc12 [Compound 20j, 3,6,7-Trihydroxy-2–(3-(trifluoromethyl)phenyl)-4H-chromen-4-one] | > 100
O=c1c(O)c(-c2ccc(Cl)cc2)oc2cc(O)c(O)cc12 [Compound 20k, 2–(4-Chlorophenyl)-3,6,7-trihydroxy-4H-chromen-4-one] | 81.5 ± 3.3
O=c1c(O)c(-c2cccc(Cl)c2)oc2cc(O)c(O)cc12 [Compound 20l, 2–(3-Chlorophenyl)-3,6,7-trihydroxy-4H-chromen-4-one] | 73.2 ± 3.2
O=c1c(O)c(-c2ccc(-c3ccccc3)cc2)oc2cc(O)c(O)cc12 [Compound 20m, 2-([1,1'-Biphenyl]-4-yl)-3,6,7-trihydroxy-4H-chromen-4-one] | > 100
O=c1c(O)c(-c2ccc(Oc3ccccc3)cc2)oc2cc(O)c(O)cc12 [Compound 20n, 3,6,7-Trihydroxy-2–(4-phenoxyphenyl)-4H-chromen-4-one] | > 100
O=c1c(O)c(-c2cccc(Oc3ccccc3)c2)oc2cc(O)c(O)cc12 [Compound 20o, 3,6,7-Trihydroxy-2–(3-phenoxyphenyl)-4H-chromen-4-one] | 73.3 ± 12.7
O=c1c(O)c(-c2ccc(O)cc2)oc2cc(O)c(O)cc12 [Compound 20p, 3,6,7-Trihydroxy-2–(4-hydroxyphenyl)-4H-chromen-4-one] | 22.6 ± 0.3
O=c1c(O)c(-c2cccc(O)c2)oc2cc(O)c(O)cc12 [Compound 20q, 3,6,7-Trihydroxy-2–(3-hydroxyphenyl)-4H-chromen-4-one] | 2.96 ± 0.19
O=C(O)c1ccc(-c2oc3cc(O)c(O)cc3c(=O)c2O)cc1 [Compound 20r, 4–(3,6,7-Trihydroxy-4-oxo-4H-chromen-2-yl)benzoic acid] | 3.93 ± 0.03
O=c1c(O)c(-c2ccc3ccccc3c2)oc2cc(O)c(O)cc12 [Compound 23a, 3,6,7-Trihydroxy-2-(naphthalen-2-yl)-4H-chromen-4-one] | 97.8 ± 1.7
Cn1cc(-c2oc3cc(O)c(O)cc3c(=O)c2O)cn1 [Compound 23b, 3,6,7-Trihydroxy-2–(1-methyl-1H-pyrazol-4-yl)-4H-chromen-4-one] | 1.79 ± 0.4
O=c1c(O)c(-c2cccs2)oc2cc(O)c(O)cc12 [Compound 23c, 3,6,7-Trihydroxy-2-(thiophen-2-yl)-4H-chromen-4-one] | 73.3 ± 12.8

Same assay, conditions: at concentrations of 10 and 50 µM, result in words

Compound | IP6K2-inhibitory activity in screening
O=c1cc(-c2ccccc2)oc2cc(O)c(O)cc12 [Compound 2a] | inhibit IP6K2 more strongly than the corresponding compounds
O=c1cc(-c2ccc(O)cc2)oc2cc(O)c(O)cc12 [Compound 2c] | inhibit IP6K2 more strongly than the corresponding compounds
O=c1cc(-c2cccnc2)oc2cc(O)c(O)cc12 [Compound 2e] | inhibit IP6K2 more strongly than the corresponding compounds

System: not listed separately
Assay: in vitro
Conditions: PAMPA
Text: Supporting Information Table 1.
artificial membrane permeability assay (PAMPA) as described previously (reference). The apparent permeability
(ranitidine, nadolol, hydrochlorothiazide).
Data are mean ± S.D. (n=3).
Reference: Oh, M.H., Lee, H.J., Jo, S.H., et al. Development of Cassette PAMPA for Permeability Screening. Biol Pharm

Compound | Papp [×10⁻⁶ cm/s] | Permeability class
O=C(N[C@H](CO)[C@H](O)c1ccc([N+](=O)[O-])cc1)C(Cl)Cl [Chloramphenicol, chloramphenicol] | 4.67 ± 0.063 | High
NS(=O)(=O)c1cc2c(cc1Cl)NCNS2(=O)=O [Hydrochlorothiazide, hydrochlorothiazide] | < 0.18 | Low
COCCc1ccc(OCC(O)CNC(C)C)cc1 (stereo not drawn) [Metoprolol, metoprolol] | 3.45 ± 0.158 | High
CC(C)(C)NCC(O)COc1cccc2c1CC(O)C(O)C2 (stereo not drawn) [Nadolol, nadolol] | 0.089 ± 0.007 | Low

System: not given
Assay: not given
Conditions: not given

Compound | melting point [°C]
O=c1cc(-c2ccc(O)cc2)oc2cc(F)ccc12 | 310 to 312
O=c1cc(-c2ccc(O)cc2)oc2ccc(F)cc12 | 292 to 294
O=c1cc(-c2ccc(O)cc2)oc2cccc(F)c12 | 272 to 274
O=c1cc(-c2ccc(O)cc2)oc2cc(F)c(F)cc12 | 302 to 304
O=C(O)c1cccc(-c2cc(=O)c3cc(F)c(F)cc3o2)c1 | 272 to 274
O=c1cc(-c2ccc(O)cc2)oc2cc(F)cc(F)c12 | 228 to 230
O=c1cc(-c2ccccc2)oc2cc(F)ccc12 | 96 to 98
COc1ccc(-c2cc(=O)c3ccc(F)cc3o2)cc1 | 228 to 230
COc1ccc(-c2cc(=O)c3cc(F)ccc3o2)cc1 | 160 to 162
O=c1cc(-c2ccccc2)oc2cccc(F)c12 | 144 to 146
COc1ccc(-c2cc(=O)c3c(F)cccc3o2)cc1 | 178 to 180
COc1ccc(-c2cc(=O)c3cc(F)c(F)cc3o2)cc1 | 200 to 202
COc1ccc(-c2cc(=O)c3c(F)cc(F)cc3o2)cc1 | 256 to 258
O=C(O)c1cccc(-c2cc(=O)c3cc(O)c(O)cc3o2)c1 [Compound 16b, 3–(6,7-Dihydroxy-4-oxo-4H-chromen-2-yl)benzoic acid] | 416 to 418
O=C(O)c1ccc(-c2cc(=O)c3c(O)cc(O)cc3o2)cc1 [Compound 16c, 4–(5,7-Dihydroxy-4-oxo-4H-chromen-2-yl)benzoic acid] | 337 to 339
